From patent publication US20230203021A1, “GLP-1 RECEPTOR AGONIST, PHARMACEUTICAL COMPOSITION COMPRISING SAME, AND METHOD FOR PREPARING SAME” (LG CHEM, LTD., priority 2020, published 2023)

Molecular target: T1, hGLP-1R (Homo sapiens, UniProt P43220)
T1 construct: expressed in transfected cells; host or cells: CHO-K1
Assay: Measurement of activity of GLP-1R agonist (cell-based luciferase assay), CHO-K1/hGLP-1R/CRE-luciferase cell line
Settings: GLP-1R activity; CHO-K1/hGLP-1R/CRE-luciferase cells, 9 concentrations, four hours of incubation, Bright-Glo luminescence
Experimental: 15,000 cells of a CHO-K1/hGLP-1R/CRE-luciferase cell line were seeded in a 96-well plate. A medium used herein was Ham’s F-12 Nutrient medium. The cells were incubated for 18 hours in a 5% CO2 incubator which was maintained at 37° C., and then treated with drugs. Each drug dispensed at 9 different concentrations was dissolved in a DMEM/F-12 + 1% FBS medium, and the cell line was treated with each of 100 µl thereof. After four hours of incubation, a Bright-Glo® luciferase assay system kit was used to add 30 µl of an assay reagent per well. A plate was stored at room temperature for 15 minutes, and then luminescence was measured using a SpectraMax M5 reader.

T1 sequence (P43220 24-463): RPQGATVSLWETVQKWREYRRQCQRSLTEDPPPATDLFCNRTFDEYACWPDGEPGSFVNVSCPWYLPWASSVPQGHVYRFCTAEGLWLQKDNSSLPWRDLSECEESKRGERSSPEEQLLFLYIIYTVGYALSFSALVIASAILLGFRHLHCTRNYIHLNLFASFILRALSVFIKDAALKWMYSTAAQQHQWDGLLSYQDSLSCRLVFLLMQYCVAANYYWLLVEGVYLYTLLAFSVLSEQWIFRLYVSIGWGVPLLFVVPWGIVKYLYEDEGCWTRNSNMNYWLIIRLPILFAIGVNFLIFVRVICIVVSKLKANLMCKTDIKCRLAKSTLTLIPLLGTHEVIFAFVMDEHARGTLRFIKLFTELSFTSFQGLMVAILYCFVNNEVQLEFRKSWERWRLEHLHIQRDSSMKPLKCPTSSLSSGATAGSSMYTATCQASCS

Row | Compound | EC50
1 | O=C(O)c1ccc2nc(Oc3ccc(-c4cccc(OCc5ccc(Cl)cc5F)n4)cc3F)n(C[C@@H]3CCCO3)c2c1 [Example 31, (S)-2-(4-(6-((4-chloro-2-fluorobenzyl)oxy)pyridin-2-yl)-2-fluorophenoxy)-1-((tetrahydrofuran-2-yl)methyl)-1H-benzo[d]imidazole-6-carboxylic acid] | > 80 nM
2 | O=C(O)c1ccc2nc(Oc3ccc(-c4cccc(OCc5ccc(Cl)cc5F)n4)cc3Cl)n(C[C@@H]3CCCO3)c2c1 [Example 32, (S)-2-(2-chloro-4-(6-((4-chloro-2-fluorobenzyl)oxy)pyridin-2-yl)phenoxy)-1-((tetrahydrofuran-2-yl)methyl)-1H-benzo[d]imidazole-6-carboxylic acid] | 3.43 nM
3 | O=C(O)c1ccc2nc(Cc3ccc(-c4cccc(OCc5ccc(Cl)cc5F)n4)cc3)n(C[C@H]3CCOC3)c2c1 [Example 33, (R)-2-(4-(6-((4-chloro-2-fluorobenzyl)oxy)pyridin-2-yl)benzyl)-1-((tetrahydrofuran-3-yl)methyl)-1H-benzo[d]imidazole-6-carboxylic acid] | 0.365 nM
4 | O=C(O)c1ccc2nc(Cc3ccc(-c4cccc(OCc5ccc(Cl)cc5F)n4)c(Cl)c3)n(C[C@@H]3CCCO3)c2c1 [Example 34, (S)-2-(3-chloro-4-(6-((4-chloro-2-fluorobenzyl)oxy)pyridin-2-yl)benzyl)-1-((tetrahydrofuran-2-yl)methyl)-1H-benzo[d]imidazole-6-carboxylic acid] | 0.087 nM
5 | O=C(O)c1ccc2nc(Cc3ccc(-c4cccc(OCc5ccc(Cl)cc5F)n4)cc3)n(C[C@@H]3CCOC3)c2c1 [Example 35, (S)-2-(4-(6-((4-chloro-2-fluorobenzyl)oxy)pyridin-2-yl)benzyl)-1-((tetrahydrofuran-3-yl)methyl)-1H-benzo[d]imidazole-6-carboxylic acid] | 0.784 nM
6 | O=C(O)c1ccc2nc(Cc3ccc(-c4cccc(OCc5ccc(C(F)(F)F)cc5F)n4)cc3)n(C[C@@H]3CCOC3)c2c1 [Example 36, (S)-2-(4-(6-((2-fluoro-4-(trifluoromethyl)benzyl)oxy)pyridin-2-yl)benzyl)-1-((tetrahydrofuran-3-yl)methyl)-1H-benzo[d]imidazole-6-carboxylic acid] | 2.09 nM
7 | O=C(O)c1ccc2nc(Cc3ccc(-c4cccc(OCc5ccc(Cl)cc5F)n4)c(Cl)c3)n(C[C@@H]3CCOC3)c2c1 [Example 37, (S)-2-(3-chloro-4-(6-((4-chloro-2-fluorobenzyl)oxy)pyridin-2-yl)benzyl)-1-((tetrahydrofuran-3-yl)methyl)-1H-benzo[d]imidazole-6-carboxylic acid] | 1.34 nM
